Laboratory results reported in patent US20090156582A1, “Pyrazole Compound” (priority 2005, published 2009).

Biological target: T1, recombinant GSK3β enzyme (human GSK3β) (Homo sapiens, UniProt P49841)
T1 construct: FLAG (N); made in house; host or cells: Sf-21 insect cells, recombinant baculovirus (pFASTBAC1 / BAC-TO-BAC)
Experiment: Measurement of GSK3β inhibitory activity
Type: biochemical
Settings: glycogen synthase peptide substrate, Kinase Glo luminescence, read-out: IC50 (concentration of test compound needed for 50% inhibition of luminescent intensity), GSK3β inhibitory activity
Text: Human GSK3β gene was cloned by a PCR method using a primer set:
prepared using human brain cDNA (Clontech; trade name: QUICK-Clone cDNA) as a template and in reference to the base sequence of GSK3β gene registered in GenBank under Accession Number NM_002093.
PCR was done according to the protocol attached to KOD plus DNA polymerase (Toyo Boseki Kabushiki Kaisha). The obtained PCR product was electrophoresed on agarose gel (1%), and 1.2 kb of DNA fragment including GSK3β gene was collected from the gel and then digested with restriction enzymes EcoR I and Sal I. The restriction enzyme-treated DNA was electrophoresed on agarose gel (1%). The obtained DNA fragment was collected, and ligated to the plasmid pFASTBAC1 (Invitrogen), which had been digested with restriction enzyme EcoR I and Sal I, to produce expression plasmid pFB-GSK3B. The base sequence of insertion fragment was confirmed to find that it corresponded to the objective sequence. In addition, virus stock BAC-GSK3B of recombinant Baculovirus was prepared using BAC-TO-BAC Baculovirus Expression System (Invitrogen).
Sf-21 cells (Invitrogen) were seeded on Sf-900 II SFM medium (Invitrogen)(150 ml) containing 10% fetal calf serum at 1×10^6 cells/ml, and cultured at 27° C. for 24 hr. The virus stock […] obtained above of recombinant Baculovirus was added by 150 μl to the obtained culture medium, and the cells were cultured for another 60 hr. The culture medium was centrifuged (3000 rpm, 10 min) to separate the cells, and the cells were washed once with PBS. The cells were suspended in 10 ml of cell lysis buffer (25 mM HEPES (pH 7.5), 1% Triton X, 130 mM sodium chloride, 1 mM EDTA, 1 mM Dithiothreitol, 25 mM β-glycerophosphate, Protease inhibitor Complete (Boehringer), 1 mM Sodium orthovanadate), treated 4 times using a homogenizer (POLYTRON) at 20000 rpm for 30 sec to disrupt the cells. The disrupted solution of cells was centrifuged (40000 rpm, 45 min.), and GSK3β was purified from the obtained supernatant using Anti-FLAG M2 Affinity Gel (Sigma Ltd.).
10 μl of ATP solution (2.5 μM ATP) was added to the obtained mixture, and the mixture was reacted at room temperature for 30 min. Kinase Glo Reagent (Promega) (50 μl) was added to the reaction solution to stop the reaction. After reaction at room temperature for 10 min, the luminescent intensity was measured using ARVO multilabel counter (PerkinElmer Life Sciences). The concentrations of the test compounds needed for 50% inhibition of luminescent intensity (IC50 value) were calculated by PRISM 3.0 (GraphPad Software).

T1 sequence (P49841 whole entry): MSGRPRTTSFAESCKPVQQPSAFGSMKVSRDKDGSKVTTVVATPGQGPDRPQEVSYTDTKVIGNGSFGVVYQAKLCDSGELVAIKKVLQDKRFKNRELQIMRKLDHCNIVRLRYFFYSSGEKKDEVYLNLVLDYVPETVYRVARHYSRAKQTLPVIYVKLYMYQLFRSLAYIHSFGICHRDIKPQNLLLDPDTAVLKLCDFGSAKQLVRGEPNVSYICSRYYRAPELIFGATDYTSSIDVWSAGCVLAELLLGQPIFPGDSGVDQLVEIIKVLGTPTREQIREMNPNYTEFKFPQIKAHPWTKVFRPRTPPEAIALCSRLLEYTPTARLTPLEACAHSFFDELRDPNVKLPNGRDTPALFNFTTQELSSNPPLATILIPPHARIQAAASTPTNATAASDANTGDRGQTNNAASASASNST

SMILES | IC50
O=C(Nc1c[nH]nc1C(=O)NCCCc1ccccc1)c1ccccn1 [Example 342, N-(3-(((3-phenylpropyl)amino)carbonyl)-1H-pyrazol-4-yl)pyridine-2-carboxamide] | < 0.1 µM
O=C(Nc1c[nH]nc1C(=O)NCCc1c[nH]c2ccccc12)c1ccccn1 [Example 348, N-(3-(((2-(1H-indol-3-yl)ethyl)amino)carbonyl)-1H-pyrazol-4-yl)pyridine-2-carboxamide] | < 0.1 µM
O=C(Nc1c[nH]nc1C(=O)NCCO)c1ccccn1 [Example 401, N-(3-(((2-hydroxyethyl)amino)carbonyl)-1H-pyrazol-4-yl)pyridine-2-carboxamide] | < 0.1 µM
O=C(Nc1c[nH]nc1C(=O)NCCc1ccccc1)c1ccc(OC(F)(F)F)cc1 [Example 138, N-(2-phenylethyl)-4-{[4-(trifluoromethoxy)-benzoyl]amino}-1H-pyrazole-3-carboxamide] | < 0.1 µM
O=C(Nc1c[nH]nc1C(=O)NC1CCc2ccccc21)c1ccccn1 (stereo not drawn) [Example 340] | 0.3 µM
CC(C)NC(=O)c1n[nH]cc1NC(=O)/C=C/c1ccccc1 [compound 023] | < 0.1 µM
CC(C)OCCNC(=O)c1n[nH]cc1NC(=O)c1ccccn1 [Example 357, N-(3-(((2-isopropoxyethyl)amino)carbonyl)-1H-pyrazol-4-yl)pyridine-2-carboxamide] | < 0.1 µM
CC(C)NC(=O)c1n[nH]cc1NC(=O)Cc1c[nH]c2ccccc12 [compound 026] | 0.169 µM
CNC(=O)c1n[nH]cc1NC(=O)c1ccccn1 [Example 346, N-(3-((methylamino)carbonyl)-1H-pyrazol-4-yl)pyridine-2-carboxamide] | < 0.1 µM
COCCNC(=O)c1n[nH]cc1NC(=O)c1cccc(NC(C)=O)c1 [Example 370, 4-((3-(acetylamino)benzoyl)amino)-N-(2-methoxyethyl)-1H-pyrazole-3-carboxamide] | < 0.1 µM
COc1ncccc1C(=O)Nc1c[nH]nc1C(=O)NC1CCCC1 [Example 365, N-(3-((cyclopentylamino)carbonyl)-1H-pyrazol-4-yl)-2-methoxynicotinamide] | < 0.1 µM
O=C(Nc1c[nH]nc1C(=O)NCc1ccco1)c1ccc(C(F)(F)F)cc1 [compound 154] | 0.271 µM
CC1(C)C2CC[C@@]1(CS(=O)(=O)Nc1c[nH]nc1C(=O)NC1CCCC1)C(=O)C2 [compound 240] | 0.208 µM
O=C(Nc1c[nH]nc1C(=O)NCc1ccccc1)c1ccc(Oc2ccccc2)cc1 [Example 114, N-benzyl-4-[(4-phenoxybenzoyl)amino]-1H-pyrazole-3-carboxamide] | 0.394 µM
O=C(Cc1ccc(-c2ccccc2)cc1)Nc1c[nH]nc1C(=O)NC1CCCC1 [compound 065] | 0.234 µM
O=C(Cc1c[nH]c2ccccc12)Nc1c[nH]nc1C(=O)NCCc1ccccc1 [Example 130, 4-[(1H-indol-3-ylacetyl)amino]-N-(2-phenylethyl)-1H-pyrazole-3-carboxamide] | 0.128 µM
O=C(CCc1ccccc1)Nc1c[nH]nc1C(=O)Nc1ccccc1 [compound 087] | 0.115 µM
CC(=O)Nc1c[nH]nc1C(=O)NC(C)C [compound 017] | < 0.1 µM
CC(=O)Nc1cccc(C(=O)Nc2c[nH]nc2C(=O)NCc2ccco2)c1 [compound 159] | < 0.1 µM
CC(C)OCCNC(=O)c1n[nH]cc1NC(=O)c1ccccc1 [Example 424, 4-(benzoylamino)-N-(2-isopropoxyethyl)-1H-pyrazole-3-carboxamide] | < 0.1 µM
COc1ccc(C(=O)Nc2c[nH]nc2C(=O)NC(C)C)cc1 [compound 030] | < 0.1 µM
CNC(=O)c1n[nH]cc1NC(=O)COc1ccccc1 [compound 004] | < 0.1 µM
CC(C)NC(=O)c1n[nH]cc1NC(=O)c1ccc(Oc2ccccc2)cc1 [compound 032] | < 0.1 µM
O=C(/C=C/c1ccccc1)Nc1c[nH]nc1C(=O)NCc1ccccc1 [Example 105, N-benzyl-4-{[(2E)-3-phenylprop-2-enoyl]amino}-1H-pyrazole-3-carboxamide] | 0.273 µM

SMILES | IC50
CS(=O)(=O)Nc1c[nH]nc1C(=O)NC1CCCC1 [compound 227, N-cyclopentyl-4-methanesulfonylamino-1H-pyrzole-3-carboxamide] | 0.274 µM
CC(=O)Nc1cccc(C(=O)Nc2c[nH]nc2C(=O)NC(C)C)c1 [compound 034] | < 0.1 µM
O=C(Nc1c[nH]nc1C(=O)NC1CCCC1)c1ccccn1 [Example 344, N-(3-((cyclopentylamino)carbonyl)-1H-pyrazol-4-yl)pyridine-2-carboxamide] | < 0.1 µM
CC(C)NC(=O)c1n[nH]cc1NC(=O)c1ccccn1 [Example 345, N-(3-((isopropylamino)carbonyl)-1H-pyrazol-4-yl)pyridine-2-carboxamide] | < 0.1 µM
CC(=O)Nc1cccc(C(=O)Nc2c[nH]nc2C(=O)NCCOc2ccccc2)c1 [Example 369, 4-((3-(acetylamino)benzoyl)amino)-N-(2-phenoxyethyl)-1H-pyrazole-3-carboxamide] | < 0.1 µM
O=C(Nc1c[nH]nc1C(=O)NCc1ccco1)c1ccc(Oc2ccccc2)cc1 [compound 157] | 0.14 µM
O=C(CCc1ccccc1)Nc1c[nH]nc1C(=O)NC1CCCC1 [compound 067] | < 0.1 µM
CCOCC(=O)Nc1c[nH]nc1C(=O)NCc1ccccc1 [Example 103, N-benzyl-4-[(ethoxyacetyl)amino]-1H-pyrazole-3-carboxamide] | < 0.1 µM
O=C(Nc1c[nH]nc1C(=O)NC1CCCC1)c1ccc(OC(F)(F)F)cc1 [compound 076] | < 0.1 µM
O=C(Nc1c[nH]nc1C(=O)NCCOc1ccccc1)c1ccccn1 [Example 355, N-(3-(((2-phenoxyethyl)amino)carbonyl)-1H-pyrazol-4-yl)pyridine-2-carboxamide] | < 0.1 µM
CC(C)OCCCNC(=O)c1n[nH]cc1NC(=O)c1ccccn1 [Example 353, N-(3-(((3-isopropoxypropyl)amino)carbonyl)-1H-pyrazol-4-yl)pyridine-2-carboxamide] | < 0.1 µM
O=C(Nc1c[nH]nc1C(=O)NC1CCCC1)c1ccc(F)cc1F [compound 073] | < 0.1 µM
CC(C)NC(=O)c1n[nH]cc1NC(=O)C(c1ccccc1)c1ccccc1 [compound 019] | < 0.1 µM
CC(=O)Nc1cccc(C(=O)Nc2c[nH]nc2C(=O)NCCc2ccccc2)c1 [Example 137, 4-{[3-(acetylamino)benzoyl]amino}-N-(2-phenylethyl)-1H-pyrazole-3-carboxamide] | < 0.1 µM
O=C(Nc1c[nH]nc1C(=O)NCCNc1ccccc1)c1ccccn1 [Example 399, N-(3-(((2-anilinoethyl)amino)carbonyl)-1H-pyrazol-4-yl)pyridine-2-carboxamide] | < 0.1 µM
O=C(Nc1c[nH]nc1C(=O)NCCc1ccc(Br)cc1)c1ccccn1 [Example 351, N-(3-(((2-(4-bromophenyl)ethyl)amino)carbonyl)-1H-pyrazol-4-yl)pyridine-2-carboxamide] | < 0.1 µM
CCOCC(=O)Nc1c[nH]nc1C(=O)NC(C)C [compound 021] | < 0.1 µM
O=C(Nc1c[nH]nc1C(=O)NC1CCCC1)c1cccc2c1OCC2 [Example 362, N-cyclopentyl-4-((2,3-dihydro-1-benzofuran-7-ylcarbonyl)amino)-1H-pyrazole-3-carboxamide] | < 0.1 µM
CC(=O)Nc1c[nH]nc1C(=O)NCCc1ccccc1 [Example 120, 4-acetylamino-N-(2-phenylethyl)-1H-pyrazole-3-carboxamide] | < 0.1 µM
Cc1cccc(C(=O)Nc2c[nH]nc2C(=O)NCCOc2ccc(F)cc2)n1 [Example 428] | < 0.1 µM
O=C(COc1ccccc1)Nc1c[nH]nc1C(=O)NCc1ccccc1 [Example 101, N-benzyl-4-[(phenoxyacetyl)amino]-1H-pyrazole-3-carboxamide] | < 0.1 µM
CC(=O)Nc1cccc(C(=O)Nc2c[nH]nc2C(=O)NCCS(=O)(=O)c2ccccn2)c1 [Example 384, 4-((3-(acetylamino)benzoyl)amino)-N-(2-(pyridin-2-ylsulfonyl)ethyl)-1H-pyrazole-3-carboxamide] | < 0.1 µM
CC(C)NC(=O)c1n[nH]cc1NC(=O)c1cnccn1 [compound 037] | < 0.1 µM
COc1ccc(C(=O)Nc2c[nH]nc2C(=O)NCc2ccco2)cc1 [compound 155] | < 0.1 µM
